Like-named read-outs stand apart in the source and are kept apart here.
Assays:
[1] = system: Parental SNU601 cells; experiment: 6-day proliferation, nuclei count, parental line; type: cell-based; conditions: Homo sapiens, SNU-601, 144 h, read-out: IC50 inhibition of proliferation
Method: The SNU601 gastric carcinoma cell line (Creative Bioarray, Cat #CSC-C9686L) was cultured in RPMI media containing glutamax, 10% fetal bovine serum, and 1% penicillin/streptomycin at 37° C., 5% CO2. To generate a PARP inhibitor resistant cell line, an IC20 concentration of niraparib was added to the culture media.
Compound 1 and the PARP inhibitor niraparib were tested in cellular proliferation assays using the parental SNU601 cell line and the SNU601 cell line with acquired PARPi resistance. For the proliferation assays, cells were plated in 96-well plates (Corning costar 3603) at 2500-5000 cells/well in normal growth media. The next day, compound dissolved in vehicle (0.5% DMSO in media) was added to generate a 7- to 10-point concentration curve with half-log dilutions and starting concentrations of 10 or 31.6 μM. After 6 days of compound or vehicle treatment, the cells were fixed with a solution of 8% paraformaldehyde, 0.2% Triton X-100 for 20 minutes. After washing the cells with PBS, the nuclei were stained by the addition of DAPI (4′,6-diamidino-2-phenylindole) and incubation for 20 minutes. The number of nuclei in each well were counted by imaging the plates on an Image Xpress Pico automated cell imaging system (Molecular Devices). The percent proliferation after treatment was determined by normalizing the number of nuclei in treated wells to the vehicle-treated wells. […]

[2] = system: OVCAR3 cells; experiment: 6-day growth assay, Compound 1 in combination with camonsertib; type: cell-based; conditions: Homo sapiens, OVCAR-3, 144 h, read-out: Compound 1 IC50, 6-Day Nuclei Count
[3] = target: T1, DRYK1B (Homo sapiens, UniProt Q9Y463); experiment: Eurofins protein kinase panel at 10 μM; type: biochemical
T1 construct: Eurofins (contract study)
Method: (§1) The inhibitory potential of Compound 1 was tested against 38 diverse non-kinase enzymes and 55 receptors, ion channels and neurotransmitter transporters in radioligand competition binding assays using mostly human recombinant proteins. […] Compound 1 was also tested against an additional panel of 468 protein kinases. Studies were performed at Eurofins (Luxembourg City, Luxembourg) using their published assay formats.

[4] = system: panel of 468 protein kinases (all other kinases tested); experiment: Eurofins protein kinase panel at 10 μM; type: biochemical
Method: as §1

T1 sequence (Q9Y463 whole entry): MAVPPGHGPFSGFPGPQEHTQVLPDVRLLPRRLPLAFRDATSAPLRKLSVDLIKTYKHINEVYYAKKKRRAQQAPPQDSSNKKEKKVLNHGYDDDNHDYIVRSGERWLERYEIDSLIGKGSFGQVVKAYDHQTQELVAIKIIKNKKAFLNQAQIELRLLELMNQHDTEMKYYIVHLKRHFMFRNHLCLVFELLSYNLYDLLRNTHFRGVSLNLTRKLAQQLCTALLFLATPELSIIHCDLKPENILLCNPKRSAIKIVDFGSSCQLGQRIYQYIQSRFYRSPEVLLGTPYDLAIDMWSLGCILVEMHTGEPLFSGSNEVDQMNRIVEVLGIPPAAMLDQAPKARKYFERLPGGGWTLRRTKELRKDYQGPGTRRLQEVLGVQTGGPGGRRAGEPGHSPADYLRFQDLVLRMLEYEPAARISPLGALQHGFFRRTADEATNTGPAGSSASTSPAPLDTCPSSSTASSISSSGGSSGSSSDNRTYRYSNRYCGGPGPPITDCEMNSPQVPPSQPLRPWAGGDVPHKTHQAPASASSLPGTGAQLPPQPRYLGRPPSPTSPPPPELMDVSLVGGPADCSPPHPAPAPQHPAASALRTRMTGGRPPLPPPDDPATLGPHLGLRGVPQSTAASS

`[2H]C([2H])(c1cnn(C)c1)N1C(=O)c2cc(S(=O)(=O)NC3(C)CC3)ccc2N2C1=NC[C@H]2C` [Compound 1, (R)-1-methyl-4-((1-methyl-1H-pyrazol-4-yl)methyl-d2)-N-(1-methylcyclopropyl)-5-oxo-1,2,4,5-tetrahydroimidazo[1,2-a]quinazoline-7-sulfonamide] was tested, and the IC50 [1] was 210 nM, the IC50 ([2]; camonsertib 0.032 nM) was 39 µM and the IC50 ([2]; camonsertib 0.32 nM) was 44 µM. For the same compound, the IC50 ([2]; camonsertib 3.2 nM) was 29 µM, the IC50 ([2]; camonsertib 10 nM) was 12 µM and the IC50 ([2]; camonsertib 32 nM) was 2 µM. For the same compound, the IC50 ([2]; camonsertib 100 nM) was 0.27 µM, the inhibition at 10 µM [3] was 51% and the “% inhibition” value [4] was less than 50%.
